# Ends that are not written are not given here. * marks the point of attachment. Biotin = O=C1N[C@H]2[C@H](CS[C@H]2CCCCC(=O)*)N1
# Legend:
# [1] = molecular target: T1, MeCP2-TBL1 interaction (MeCP2-SmBiT / TBL1-LgBiT) (Mus musculus, UniProt Q9QXE7); assay: MeCP2-TBL1 NanoLuc luciferase complementation assay (cell-free, extracts of transfected HEK293 cells); type: binding, human; conditions: for extent of MeCP2-TBL1 inhibition reached within the tested concentration range / separation between MeCP2-TBL1 inhibition and inhibition of the PKA control in dose response: 0.3–60 μM; for separation between MeCP2-TBL1 inhibition and inhibition of the PKA control in dose response: PKA-based assay run in parallel; for IC50: dose response 0.3–60 μM, triplicate, 30 min, luminescence normalized to DMSO, read-out: IC50, inhibition of MeCP2-TBL1 luminescence signal; for inhibition in MeCP2-TBL1 assay compared with control PKA-based assay, individual validation / inhibition at 20 µM / Inh (MeCP2-TBL1): 20 µM; for inhibition in MeCP2-TBL1 assay compared with control PKA-based assay, individual validation: n = 7, t-test; for inhibition at 20 µM: ApexBio library screen, threshold SSMD* ≥ 3, read-out: inhibition in MeCP2-TBL1 assay after adjusting for activity in the PRKACA-PRKAR2A assay; for Inh (MeCP2-TBL1): ApexBio FDA-approved Drug Library screen;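 on Inhibition percent: each compound tested at 20 µM final concentration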
# T1 construct: expressed in transfected cells; crude lysate used as a cell-free assay
# T1 sequence (Q9QXE7 166-527): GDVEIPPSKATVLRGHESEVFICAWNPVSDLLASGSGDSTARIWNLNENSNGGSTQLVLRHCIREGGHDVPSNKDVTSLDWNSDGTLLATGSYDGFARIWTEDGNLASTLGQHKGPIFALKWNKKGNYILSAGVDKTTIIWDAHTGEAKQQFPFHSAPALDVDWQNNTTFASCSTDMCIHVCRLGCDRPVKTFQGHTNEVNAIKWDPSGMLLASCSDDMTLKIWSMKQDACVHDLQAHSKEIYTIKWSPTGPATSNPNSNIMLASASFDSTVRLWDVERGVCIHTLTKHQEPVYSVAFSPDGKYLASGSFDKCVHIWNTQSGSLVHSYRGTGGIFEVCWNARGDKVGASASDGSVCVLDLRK
# Outline: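 Cell-free split NanoLuc: lysate of HEK293 cells co-expressing the MeCP2 C-terminal half-SmBiT and TBL1 WD domain-LgBiT, mixed 1:1 with furimazine. After 30 min at room temperature, luminescence was plate-median normalized.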
# [2] = tested on: PRKACA-PRKAR2A interaction (SmBiT-PRKACA / LgBiT-PRKAR2A), protein kinase A; assay: PKA-based NanoLuc complementation control assay (counter-screen); type: binding, human; design: Inh (PKA): unit not given here; conditions: 20 µM; for Inh (PKA): ApexBio FDA-approved Drug Library screen
# Text: To distinguish such false positives from genuine inhibitors of the interaction between MeCP2 and TBL1/TBLR1, a control screen is essential, utilising the same NanoLuc SmBiT and LgBiT fragments, but with an unrelated protein interaction pair. The interaction between PRKACA and PRKAR2A, which are the catalytic and regulatory subunits of human protein kinase A (PKA) respectively, has previously been measured using a NanoLuc complementation assay. We tested this pair of interacting proteins for activity in a NanoLuc complementation assay under our conditions. […] We therefore selected the PKA-based NanoLuc complementation as a suitable control assay. The effects of the four compounds identified from the Asinex library were assessed in the control PKA-based NanoLuc assay.
# The AgeI-NotI restriction fragment (encoding EGFP) was then replaced with a codon optimized SmBiT sequence to yield the MeCP2-SmBiT expression plasmid. […]
# In the screens described here, the lysate obtained from a single 15 cm plate was used for 2.5 384-well assay plates. […] After 30 min incubation at room temperature, luminescence was measured on a Tecan M1000 multi-mode plate reader. Raw luminescence reads from each well on each plate were normalized to the median luminescence signal for that plate. […] After plate normalization the robust SSMD (SSMD*) was calculated as described elsewhere. […]
# Assays were performed as described above except instead of a single concentration, a threefold serial dilution ranging from 60 to 0.03 μM was tested in triplicate for each of the compounds. Half-maximal inhibitory concentrations were calculated using global nonlinear regression by fitting the response data sets of all compounds simultaneously with a four-parameter logistic curve of log inhibitor concentration versus normalized luminescence using GraphPad Prism. […] The luminescence signal of each compound concentration was normalized by dividing the luminescence signal of the DMSO control.
# [3] = primary screen of the Asinex library, sheet "Sargen output Asinex library", one well per compound
# [4] = primary screen of Asinex library, single well per compound
# [5] = primary screen of the Asinex library, sheet "Sargen output Asinex library", one well per compound, Batch Ref. 1
compound,measurement,setting,value
C[C@H]1CC[C@H]2[C@H](O1)c1cc(OCC(=O)NCc3ccccc3)ccc1OC2(C)C [BDG 34039627],extent of MeCP2-TBL1 inhibition reached within the tested concentration range,[1],able to return the luminesce signal back to baseline
same,separation between MeCP2-TBL1 inhibition and inhibition of the PKA control in dose response,[1],clear separation
same,IC50,[1],18 µM
same,effect on luminescence in PKA control assay,[2]; n = 3,did not cause a reduction in luminescence
CCc1nnsc1C(=O)NC[C@]1(c2ccccc2)CC[C@@H](O)[C@H](N2CCOCC2)CC1 [BDH_34124703],Inhibition percent,[1]; [3],0.50%
COc1cccc(C2CN(Cc3ccccc3)C(=O)C23CCN(Cc2cccc(C(=O)O)c2)CC3)c1 (centres unmarked) [BDH_34129947],Inhibition percent,[1]; [4],-0.66
COc1cccc(C2CN(Cc3ccccc3)C(=O)C23CCN(Cc2ccc(C(=O)O)cc2)CC3)c1 (centres unmarked) [BDH_34130105],Inhibition percent,[1]; [4],0.45
COc1cccc(C2CN(Cc3ccccc3)C(=O)C23CCN(Cc2ccccc2C(=O)O)CC3)c1 (centres unmarked) [BDH_34130263],Inhibition percent,[1]; [4],5.00
CC1(C)Oc2ccccc2[C@@H]2O[C@@H]3CCN(C(=O)c4cccc(Cn5ccnc5)c4)C[C@]3(CO)C[C@H]21 [BDH_34133896],Inhibition percent,[1]; [5],6.91%
CC(=O)N1CCC(C(=O)N[C@@H]2C[C@@H](Oc3cccc(F)c3)[C@H](O)[C@H]2N(C)Cc2ccccc2)CC1 [BDI_34055064],Inhibition percent,[1]; [3],0.18%
COc1ccc(CN(C)[C@@H]2[C@@H](O)[C@H](Oc3cccc(F)c3)C[C@H]2NC(=O)CCC(N)=O)cc1 [BDI_34058033],Inhibition percent,[1]; [5],-0.09%
CN(Cc1ccccc1)[C@@H]1[C@@H](O)[C@H](Oc2cccc(C(F)(F)F)c2)C[C@H]1NC(=O)c1cocn1 [BDI_34061115],Inhibition percent,[1]; [5],4.93%
"CN(C)Cc1cccc(N/C(=C2\C(=O)Nc3cc(C(=O)N(C)C)ccc32)c2ccccc2)c1 [BIX02189, reference compound]","inhibition in MeCP2-TBL1 assay compared with control PKA-based assay, individual validation",[1],did not have a statistically different effect
same,separation between MeCP2-TBL1 inhibition and inhibition of the PKA control in dose response,[1],only modest selectivity
same,inhibition at 20 µM,[1],≥ 35%
same,IC50,[1],28 µM
"O=C1C(Cl)=C(N2CCOCC2)C(=O)N1c1ccc(Cl)c(Cl)c1 [RI-1, reference compound]",Inh (MeCP2-TBL1),[1],13.6055
"Oc1ccc(Nc2nc(-c3ccc(Cl)cc3)cs2)cc1 [SKI II, reference compound]",Inh (MeCP2-TBL1),[1],10.5772
same,Inh (PKA),[2],14.6502
"COc1ccc(/C(Cl)=C(/C=O)c2ccc(OC)cc2)cc1 [Windorphen, reference compound]",Inh (MeCP2-TBL1),[1],12.6933
same,Inh (PKA),[2],33.916
"CCNC(=O)c1noc(-c2cc(C(C)C)c(O)cc2O)c1-c1ccc(CN2CCOCC2)cc1 [luminespib, reference compound]","inhibition in MeCP2-TBL1 assay compared with control PKA-based assay, individual validation",[1],statistically significantly greater
same,extent of MeCP2-TBL1 inhibition reached within the tested concentration range,[1],without being able to completely inhibit MeCP2-TBL1 binding
same,separation between MeCP2-TBL1 inhibition and inhibition of the PKA control in dose response,[1],clear separation
same,inhibition at 20 µM,[1],≥ 35%
same,IC50,[1],31 µM
"C=C1C(=O)[C@]23[C@H](O)[C@H]1CC[C@H]2[C@@]12CO[C@]3(O)[C@@H](O)[C@@H]1C(C)(C)CC[C@@H]2O [oridonin, reference compound]","inhibition in MeCP2-TBL1 assay compared with control PKA-based assay, individual validation",[1],statistically significantly greater
same,separation between MeCP2-TBL1 inhibition and inhibition of the PKA control in dose response,[1],only modest selectivity
same,inhibition at 20 µM,[1],≥ 35%
same,IC50,[1],34 µM
"LSSWVLLMK [AAT, alpha-1 antitrypsin fragment 235–243, reference compound]","inhibition in MeCP2-TBL1 assay compared with control PKA-based assay, individual validation",[1],statistically significantly greater
same,extent of MeCP2-TBL1 inhibition reached within the tested concentration range,[1],able to return the luminesce signal back to baseline
same,separation between MeCP2-TBL1 inhibition and inhibition of the PKA control in dose response,[1],clear separation
same,inhibition at 20 µM,[1],≥ 35%
"control peptide with the R306C mutation: 35 amino acid MeCP2 NID peptide (residues 285-319) carrying the R306C mutation, N-terminal biotin (Biotin-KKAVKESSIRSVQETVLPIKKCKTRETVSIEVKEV; UniProt P51608 285-319, looked up, variant R306C) [reference compound]",effect of competitor peptide on MeCP2-TBL1 luminescence signal,"[1]; peptide at 20 µM, n = 2",failed to substantially affect

# — PMC9995496, “A screen for MeCP2-TBL1 interaction inhibitors using a luminescence-based assay” (Scientific Reports, 2023)
